# Laboratory results taken from patent US20110190373A1, “METHODS AND COMPOSITIONS FOR THE TREATMENT OR PREVENTION OF PATHOLOGICAL CARDIAC REMODELING AND HEART FAILURE” (UNIVERSITY OF ROCHESTER, priority 2008, published 2011).
# Entries after “also recorded” stand apart in the source; their conditions may differ.
# How the values were obtained:
# [1] = tested on: rat neonatal cardiomyocytes; experiment: PE-induced cardiomyocyte hypertrophy, myocyte (cell) surface area; format: cell-based; conditions: NRVM
# Description: (§1) FIGS. 3A-C show the effects of PDE1 inhibitors on pathological cardiomyocyte hypertrophy. Myocyte hypertrophy was induced in NRVM by α-adrenergic agonist, phenylephrine (PE). Hypertrophy was assessed by protein synthesis by measuring [^3H]-leucine incorporation (normalized to the total DNA content), or by myocyte surface area. PDE inhibitor 8-MM-IBMX (at 10 μM the concentration selective to PDE1) blocked PE-induced cardiomyocyte protein synthesis measured by [^3H]-leucine incorporation (FIG. 3A) or measured by myocyte surface area (FIG. 3B).
# Effects of PDE1 inhibitor 8-MM-IBMX on PE-stimulated cell hypertrophic growth were measured by cell surface area (FIG. 3B). Rat neonatal cardiomyocytes were treated with either […] or vehicle, followed without (ctrl) or with PE stimulation. Cells were stained for α-actinin (a cardiomyocyte specific marker) to exclude the contamination of cardiac fibroblasts. At lease 100 α-actinin positive cells were analyzed. Cell surface area was measured by Image J program.
# Effects of PDE1 inhibitor vinpocetine on PE-stimulated cell hypertrophic growth were measured by cell surface area (FIG. 3C). Rat neonatal cardiomyocytes were treated with either 20 μM Vinpocetine (vinp) or vehicle, followed without (ctrl) or with PE stimulation. Cell surface area was measured as above. Data were normalized to control (vehicle, without PE) that was arbitrarily set to 1.0. Data are means of at least 100 cells (mean±SD). […]
# (§2) FIG. 4A illustrates a representative Western blot showing PDE1A protein expression in neonatal cardiomyocytes either not transfected (NT), or transfected with off-targeting control siRNA (1 μg) or rat PDE1A siRNA (0.5 or 1.0 μg) for 72 hours via electroporation. […] Protein synthesis assessed by [^3H]-leucine incorporation (normalized to the total DNA content) in NRVM transfected with 1 μg of control siRNA or PDE1A siRNA followed by PE (50 μmol/L) or vehicle (ctrl) stimulation for 48 hours (FIG. 4B). […] Data were quantified by densitometry in a linear range and normalized to GAPDH mRNA levels. […]
# [2] = tested on: rat neonatal cardiomyocytes; experiment: PE-induced cardiomyocyte hypertrophy, protein synthesis by [3H]-leucine incorporation; format: cell-based; conditions: NRVM
# Description: as §1
# Rat neonatal cardiomyocytes were cultured in serum-free medium for 24 hours. […] Cells were lysed and ^3H-leucine incorporation in cell lysates were then measured by scintillation counter. […]
# as §2
# [3] = tested on: mouse cardiac hypertrophy; experiment: Cardiac hypertrophy induced by chronic ISO infusion in mice; format: in vivo; conditions: i.p. 10 mg/kg/d, ISO 30 mg/kg/d for 7 days
# Description: FIGS. 5A-F illustrate that Vinpocetine attenuates cardiac hypertrophy in vivo. C57 mice received continuous vehicle (0.002% ascorbic acid in PBS) or ISO (30 mg/kg/d) infusion via osmotic pumps for 7 days, and also received daily DMSO or Vinpocetine treatment (i.p. 10 mg/kg/d). Control group (Con): mice receiving only vehicle infusion for 7 days. ISO group: mice receiving ISO infusion and DMSO treatment for 7 days. ISO+Vinp group: mice receiving ISO infusion and vinpocetine treatment for 7 days. After 7 days, animals were sacrificed and hearts were excised, weighed, frozen in −80° C. for mRNA assay, or fixed in 10% formalin for histology analysis. FIG. 5A are representative gross heart images showing effects of PDE1 inhibitor on cardiac hypertrophy. FIGS. 5B-C are graphs showing the effect of Vinpocetine on heart to body weight ratio or heart weight to tibial length ratio, respectively. […] FIGS. 5E-F are graphs showing the effect of Vinpocetine on ANP and BNP mRNA expression, respectively. Total RNA from left ventricles were subjected to real-time RT-PCR analyses for the mRNA levels of ANP and BNP. Data were normalized to control and sham samples that were arbitrarily set to 1.0. Data represent mean of 4 animals (mean±SEM). **P<0.01 vs. control mice. ##P<0.01 vs. ISO-infused mice without Vinpocetine. […] PDE1 is a well known biological target for Vinpocetine. […] Based on these reasons, the effects of Vinpocetine were tested on cardiomyocyte hypertrophy in vivo.
# [4] = therapeutic doses, patients; cited from earlier work
# [5] = 20 μM, α-actinin positive cells
Structure (SMILES),PE-induced hypertrophy measured by myocyte surface area ([1]; 10 μM (figure legend)),"PE-induced hypertrophy measured by myocyte surface area [1, 5]",PE-induced cardiomyocyte protein synthesis measured by [3H]-leucine incorporation ([2]; 10 μM (figure legend)),"PE-induced hypertrophy assessed by protein synthesis with 3H-leucine incorporation ([2]; 20 μmol/L, PE 48 hours, normalized to DNA content)",ISO-induced increase in cross-section areas of cardiomyocytes in left ventricles ([3]; H&E staining),cardiac hypertrophy measured by gross heart morphology ([3]; mouse),heart weight/body weight (HW/BW) ratio ([3]; mouse),heart weight/tibia length (HW/TL) ratio ([3]; mouse),ANP mRNA level in left ventricle ([3]; real-time RT-PCR),BNP mRNA level in left ventricle ([3]; real-time RT-PCR),"side effects, toxicity or contraindications [4]"
"COCc1nc2c([nH]1)c(=O)n(C)c(=O)n2CC(C)C [8-MM-IBMX, 8-methoxymethyl-isobutylmethylxanthine]",blocked,significantly attenuated,blocked,significantly attenuated,–,–,–,–,–,–,–
"CCOC(=O)C1=C[C@]2(CC)CCCN3CCc4c(n1c1ccccc41)[C@@H]32 [Vinpocetine, (+)-vinpocetine]",–,significantly reduced; also recorded: significantly blocked,–,–,significantly attenuated,significantly reduced,significantly reduced,significantly reduced,significantly decreased,significantly decreased,"no reports of significant side effects, toxicity or contraindications"
